In patent US8198405B2, “Stabilized alpha helical peptides and uses thereof” (Dana-Farber Cancer Institute, Inc., priority 2003, dated 2012):
Where a SMILES comes first, the peptide text is derived from it. [ ]: non-standard residue; d: D form. The star is where a group is joined. FITC = O=C1OC2(c3ccc(O)cc3Oc3cc(O)ccc32)c2ccc(NC(=S)*)cc21; Nle = CCCC[C@H](N)C(=O)O; βAla = NCCC(=O)O

How the values were obtained:
[1] = 10 mg/kg FITC-conjugated peptide
Protocol: Levels of intact FITC-compound in 25 μL of fresh serum were then measured.

[2] = test system: Jurkat T-cell leukemia cells; test: Cellular uptake of FITC-peptides by FACS
Excerpt: BID helix 6, a cell permeable and membrane perturbing peptide, was used as a positive control for FITC-labeling in this experiment.

[3] = test system: Jurkat T-cell leukemia cells; test: Confocal microscopy, intracellular localization; format: cell-based; details: fixed cells
Protocol: Confocal microscopy experiments were employed in order to determine the intracellular localization of SAHB3BIDA. Jurkat T-cell leukemia cells were incubated with FITC-labeled compounds as described above or with serum replacement at 4 hours followed by additional 16 hours incubation at 37° C., and after washing twice with PBS, were cytospun at 600 RPM for 5 minutes onto superfrost plus glass slides (Fisher). Cells were then fixed in 4% paraformaldehyde, washed with PBS, incubated with TO-PRO-3 iodide (100 nM) (Molecular Probes) to counterstain nuclei, treated with Vectashield mounting medium (Vector), and then imaged by confocal microscopy (BioRad 1024). For double labeling experiments, fixed cells were additionally incubated with primary antibody to TOM20, and rhodamine-conjugated secondary antibody prior to TOPRO-3 counterstaining. […] Treated Jurkats were washed twice and then resuspended in PBS and wet mount preparations analyzed with a BioRad 1024 (Beth Israel/Deaconess Center for Advanced Microscopy) or Zeiss LSM510 laser scanning confocal microscope (Children's Hospital Boston Imaging Core).

[4] = target: T1, BAX (Homo sapiens, UniProt Q07812); test: Fluorescence polarization direct binding assay; details: full-length BAX
T1 construct: Full-length BAX protein was prepared as previously described (Suzuki et al, Cell, 103:645); made in house

[5] = test system: MV4;11
[6] = test system: REH, MV4; 11, and SEMK2 cell lines; test: Apoptosis induction assays; format: cell-based
[7] = target: T2, BCL-2 (Homo sapiens, UniProt P10415); test: Fluorescence polarization direct binding assay
T2 construct: containing the plasmid encoding C-terminal deleted GST-BCL-2; made in house; host or cells: Escherichia coli BL21 (DE3)

[8] = test system: SEMK2-M1 leukemia cells; test: SEMK2 leukemia in vivo, total body luminescence
[9] = test system: Jurkat
[10] = target: T3, trypsin (Bos taurus, UniProt P00760); test: In vitro trypsin proteolysis (trypsin agarose); format: in vitro ADME; details: first order rate constant, triplicate
T3 sequence (P00760 24-246): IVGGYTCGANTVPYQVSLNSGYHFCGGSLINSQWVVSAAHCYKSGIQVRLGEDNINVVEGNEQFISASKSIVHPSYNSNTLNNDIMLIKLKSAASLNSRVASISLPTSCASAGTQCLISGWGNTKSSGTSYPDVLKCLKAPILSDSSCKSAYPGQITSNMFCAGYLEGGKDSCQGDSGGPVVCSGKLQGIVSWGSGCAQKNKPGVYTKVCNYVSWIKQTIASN
Protocol: The amide bond of the peptide backbone is susceptible to hydrolysis by proteases, thereby rendering peptidic compounds vulnerable to rapid degradation in vivo. Peptide helix formation, however, buries the amide backbone and therefore shields it from proteolytic cleavage. […] SAHB3BIDA and unmodified peptide were incubated with trypsin agarose and the reactions quenched at various time points by centrifugation and subsequent HPLC injection to quantitate the residual substrate by ultraviolet absorption at 280 nm. […] Reactions were quenched by tabletop centrifugation at high speed; remaining substrate in the isolated supernatant was quantified by HPLC-based peak detection at 220 nm.

[11] = test system: REH
[12] = test system: SEMK2
[13] = test system: Jurkat cells engineered to overexpress BCL-2; test: Apoptosis by annexin V flow cytometry; format: cell-based
Protocol: Indeed, the pro-apoptotic effect of 10 uM SAHB3BIDA and B on “wild-type” Jurkats was abolished in the BCL-2 overexpressing cells. […] The observed pro-apoptotic effects are selectively abolished by gly to glu mutation of SAHB3BIDA and cellular overexpression of BCL-2, findings which underscore that SAHB3BID compounds function via the defined mitochondrial apoptosis pathway.

[14] = test system: BCL-XL; test: 15N/1H HSQC NMR of 15N-labeled BCL-XL; format: binding; details: 1:1 complex, 0.1 mM
Protocol: Briefly, Escherichia coli BL21 (DE3) containing the plasmid encoding C-terminal deleted BCL-XL were cultured in M9-minimal medium containing ^15NH4Cl (Cambridge Isotope Laboratories) to generate uniformly ^15N-labeled protein. Recombinant proteins were isolated from bacteria. […] Two dimensional ^15N/^1H heteronuclear single-quantum spectra were recorded for the two complexes and analyzed for changes in resonance upon ligand binding.

[15] = test system: purified mouse liver mitochondria; test: Cytochrome c release assay (ELISA), wild-type mitochondria; format: biochemical
Protocol: (§1) In order to assess the biological activity of SAHB3BID compounds in vitro, cytochrome c release assays were performed using purified mouse liver mitochondria. Mitochondria (0.5 mg/mL) were incubated for 40 minutes with 1 μM and 100 nM of SAHB3BID compounds and then supernatants and mitochondrial fractions isolated and subjected to cytochrome c ELISA assay. Background cytochrome c release (10-15%) was subtracted from total release for each sample, and the percent actual cytochrome c release was determined (FIG. 12). […] In each case, except for the double cross-linked SAHB3BIDE (which may lack critical amino acids for biological activity or, in this case, be overly constrained by the dual cross-links), there is approximately a doubling of cytochrome c release in response to 1 μM SAHB3BID compounds compared to the unmodified peptide (FIG. 12a). […] BID mutants with defective BH3 domains can promote BAK-independent cytochrome c mobilization (Scorrano et al, Dev Cell, 2:55), and the highly hydrophobic BID helix 6 has been implicated in this activity (L. Scorrano, S. J. Korsmeyer, unpublished results).
Similar to the above experiment, mouse liver mitochondria from wild-type and Bak−/− mice were exposed to the compounds at various concentrations and assayed for cytochrome c release at 10 and 40 minute intervals. […] Thus, SAHB3BIDA and B display a 10-25 fold enhancement in cytochrome c release activity at the 40 minute time point.

[16] = test system: mouse liver mitochondria isolated from Bak-/- mice; test: Cytochrome c release assay, Bak-/- mitochondria (BAK-independent release); format: biochemical; details: 1 μM, 40 minutes
Protocol: as §1
Similar to the above experiment, mouse liver mitochondria from wild-type and Bak−/− mice were exposed to the compounds at various concentrations and assayed for cytochrome c release at 10 and 40 minute intervals. […]

[17] = target: T4, GST-BCL-2 (Homo sapiens, UniProt P10415); test: Fluorescence polarization competitive binding (displacement of FITC-BID BH3)
T4 construct: containing the plasmid encoding C-terminal deleted GST-BCL-2; made in house; host or cells: Escherichia coli BL21 (DE3)

[18] = test system: RS4;11

T4 sequence (P10415 1-218 limits assumed): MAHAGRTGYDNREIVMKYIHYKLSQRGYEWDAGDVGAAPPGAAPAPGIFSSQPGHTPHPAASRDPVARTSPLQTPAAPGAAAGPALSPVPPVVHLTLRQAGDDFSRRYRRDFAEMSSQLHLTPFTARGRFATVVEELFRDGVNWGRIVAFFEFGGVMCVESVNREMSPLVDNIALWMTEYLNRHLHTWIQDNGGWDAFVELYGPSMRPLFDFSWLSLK
T2 sequence (P10415 1-218 limits assumed): as above
T1 sequence (Q07812 whole entry): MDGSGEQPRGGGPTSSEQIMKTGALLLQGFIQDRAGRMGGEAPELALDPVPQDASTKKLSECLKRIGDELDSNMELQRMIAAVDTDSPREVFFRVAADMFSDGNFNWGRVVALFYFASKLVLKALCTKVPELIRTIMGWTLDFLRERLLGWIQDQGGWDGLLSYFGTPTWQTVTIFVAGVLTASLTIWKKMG

CCCC[C@H](NC(=O)[C@H](CO)NC(=O)[C@H](CC(=O)O)NC(=O)CNC(=O)[C@@H](NC(=O)[C@H](CCC(N)=O)NC(=O)[C@H](C)NC(=O)[C@H](CC(C)C)NC(=O)[C@H](Cc1c[nH]cn1)NC(=O)[C@H](CCCNC(=N)N)NC(=O)[C@H](C)NC(=O)[C@@H](NC(=O)[C@H](CC(N)=O)NC(=O)[C@H](CCCNC(=N)N)NC(=O)[C@@H](NC(=O)[C@@H](NC(=O)[C@H](CC(=O)O)NC(=O)[C@@H](N)CCC(=O)O)[C@@H](C)CC)[C@@H](C)CC)[C@@H](C)CC)C(C)C)C(=O)N[C@@H](CC(=O)O)C(=O)N[C@@H](CCCNC(=N)N)C(=O)N[C@@H](CO)C(=O)N[C@H](C(=O)N[C@@H](Cc1c[nH]c2ccccc12)C(N)=O)[C@@H](C)CC [BID BH3, reference compound] (H-EDIIRNIARHLAQVGDS[Nle]DRSIW-NH2)
percent detectable in serum ([1]; one hour after injection): 12%

CCCC[C@H](NC(=O)[C@H](CO)NC(=O)[C@H](CC(=O)O)NC(=O)CNC(=O)[C@@H](NC(=O)[C@H](CCC(N)=O)NC(=O)[C@H](C)NC(=O)[C@H](CC(C)C)NC(=O)[C@H](Cc1c[nH]cn1)NC(=O)[C@H](CCCNC(=N)N)NC(=O)[C@H](C)NC(=O)[C@@H](NC(=O)[C@H](CC(N)=O)NC(=O)[C@H](CCCNC(=N)N)NC(=O)[C@@H](NC(=O)[C@@H](NC(=O)[C@H](CC(=O)O)NC(=O)[C@H](CCC(=O)O)NC(=O)CCNC(=S)Nc1ccc2c(c1)C(=O)OC21c2ccc(O)cc2Oc2cc(O)ccc21)[C@@H](C)CC)[C@@H](C)CC)[C@@H](C)CC)C(C)C)C(=O)N[C@@H](CC(=O)O)C(=O)N[C@@H](CCCNC(=N)N)C(=O)N[C@@H](CO)C(=O)N[C@H](C(=O)N[C@@H](Cc1c[nH]c2ccccc12)C(N)=O)[C@@H](C)CC [FITC-BID BH3] ({FITC-βAla}-EDIIRNIARHLAQVGDS[Nle]DRSIW-NH2)
FITC labeling of cells at 4° C. and 37° C. [2]: did not label the cells at either temperature
FITC labeling with or without sodium azide and 2-deoxyglucose [2]: no labeling for either condition
intracellular distribution of fluorescence [3]: no cellular labeling

CCCC[C@H](NC(=O)[C@]1(C)CCCC=CCCC[C@](C)(NC(=O)[C@H](C)NC(=O)[C@H](CC(C)C)NC(=O)[C@H](Cc2c[nH]cn2)NC(=O)[C@H](CCCNC(=N)N)NC(=O)[C@H](C)NC(=O)[C@@H](NC(=O)[C@H](CC(N)=O)NC(=O)[C@H](CCCNC(=N)N)NC(=O)[C@@H](NC(=O)[C@@H](NC(=O)[C@H](CC(=O)O)NC(=O)[C@H](CCC(=O)O)NC(C)=O)[C@@H](C)CC)[C@@H](C)CC)[C@@H](C)CC)C(=O)N[C@@H](C(C)C)C(=O)NCC(=O)N[C@@H](CC(=O)O)C(=O)N1)C(=O)N[C@@H](CC(=O)O)C(=O)N[C@@H](CCCNC(=N)N)C(=O)N[C@@H](CO)C(=O)N[C@H](C(=O)N[C@@H](Cc1c[nH]c2ccccc12)C(N)=O)[C@@H](C)CC [SAHB3BIDA]
BAX binding, in words [4]: measurable binding
IC50 [5]: 4700 nM
apoptosis induction, in words [6]: specific apoptosis induction
enhancement in BCL-2 binding affinity compared to unmodified BID BH3 peptide [7]: 6 fold
Kd ([7]; fluorescinated compounds 25 nM, GST-BCL2 25 nM-1000 nM (FIG. 11d)): 38.8 nM
tumor burden (total body luminescence) ([8]; 10 mg/kg intravenously on days 1, 2, 3, 5, 6, measured days 4 and 7): leukemic suppression
tumor burden (total body luminescence) ([8]; 10 mg/kg or 5 mg/kg intravenously on days 1, 2, 3, 6, 7, measured days 4 and 8): dose-dependent manner
IC50 [9]: 2200 nM
percent of the input still measurable in serum ([1]; 22 hours post-injection): 13%
enhancement in trypsin resistance compared to the unmodified peptide [10]: 3.5 fold
IC50 [11]: 10200 nM
IC50 [12]: 1600 nM
pro-apoptotic effect in BCL-2 overexpressing cells ([13]; 10 uM): abolished
overcoming BCL-2 protection by dose escalation ([13]; dose response (FIG. 24)): can be overcome by dose escalation
BCL-XL binding site, in words [14]: binds to the defined hydrophobic pocket of BCL-XL
cytochrome c release at ten-fold lower dosing, in words ([15]; 100 nM, 40 minutes): retain selective BAK-dependent cytochrome c release activity
cytochrome c release at 10 minutes, in words ([15]; 10 minutes): significant cytochrome c release
EC50 ([15]; 40 minutes): 310 nM
BAK-independent cytochrome c release, in words [16]: BAK-independent cytochrome c release is observed
increase in displacement potency compared to unmodified BID BH3 peptide [17]: more than 13 fold
GST-BCL2 binding, in words ([17]; competition with FITC-labeled unmodified BID BH3): highest affinity binding
IC50 ([17]; read-out: IC50 for displacement of prebound FITC-BID BH3 from BCL-2): 62 nM
IC50 [18]: 2700 nM

B1: myristolated BID protein: maximally activated myristolated BID protein (protein, UniProt P55957 1-195, looked up)
BH3-interacting domain death …: MDCEVNNGSSLRDECITNLLVFGFLQSCSDNSFRRELDALGHELPVLAPQWEGYDELQTDGNRSSHSRLGRIEADSESQEDIIRNIARHLAQVGDSMDRSIPPGLVNGLALQLRNTSRSEEDRNRDLATALEQLLQAYPRDMEKEKTMLVLALLLAKKVASHTPSLLRDVFHTTVNFINQNLRTYVRSLARNGMD
modifications: myristoylated
cytochrome c released ([15]; 30 nM): approximately 65%
